Test [1] addresses T1, human glucocorticoid receptor-α [GRX] isoform (Homo sapiens, UniProt P04150).
T1 construct: host or cells: insect SF21 cells (baculovirus)
T1 sequence (P04150 1-777): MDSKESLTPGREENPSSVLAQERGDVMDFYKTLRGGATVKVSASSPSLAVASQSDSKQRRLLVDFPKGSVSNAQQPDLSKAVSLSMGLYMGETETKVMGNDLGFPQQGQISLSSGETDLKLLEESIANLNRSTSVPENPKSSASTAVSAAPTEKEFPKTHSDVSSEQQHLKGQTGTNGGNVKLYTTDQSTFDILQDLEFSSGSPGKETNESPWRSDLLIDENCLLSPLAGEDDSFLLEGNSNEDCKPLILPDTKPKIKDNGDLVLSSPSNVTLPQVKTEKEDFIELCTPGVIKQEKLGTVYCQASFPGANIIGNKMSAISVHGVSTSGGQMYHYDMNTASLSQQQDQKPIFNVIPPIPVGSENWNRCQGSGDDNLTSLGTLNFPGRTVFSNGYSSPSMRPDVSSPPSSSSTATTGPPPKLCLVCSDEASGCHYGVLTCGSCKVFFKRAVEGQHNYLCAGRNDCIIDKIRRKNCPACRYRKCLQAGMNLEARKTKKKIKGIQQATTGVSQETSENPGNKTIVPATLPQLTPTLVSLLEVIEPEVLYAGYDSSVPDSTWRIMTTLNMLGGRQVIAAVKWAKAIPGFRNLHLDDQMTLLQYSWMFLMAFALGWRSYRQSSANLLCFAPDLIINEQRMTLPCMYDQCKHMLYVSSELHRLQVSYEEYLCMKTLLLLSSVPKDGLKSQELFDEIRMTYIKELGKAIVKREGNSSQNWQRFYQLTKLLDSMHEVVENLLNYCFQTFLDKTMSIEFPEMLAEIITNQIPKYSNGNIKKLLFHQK
The test can be described thus: Radioligand binding with human glucocorticoid receptor cytosol ([3H]-dexamethasone competition).

Test [2] concerns the target T2, human progesterone receptor-A [PRA] isoform (Homo sapiens, UniProt P06401).
T2 construct: host or cells: insect SF21 cells (baculovirus)
T2 sequence (P06401 1-769 isoform P06401-2): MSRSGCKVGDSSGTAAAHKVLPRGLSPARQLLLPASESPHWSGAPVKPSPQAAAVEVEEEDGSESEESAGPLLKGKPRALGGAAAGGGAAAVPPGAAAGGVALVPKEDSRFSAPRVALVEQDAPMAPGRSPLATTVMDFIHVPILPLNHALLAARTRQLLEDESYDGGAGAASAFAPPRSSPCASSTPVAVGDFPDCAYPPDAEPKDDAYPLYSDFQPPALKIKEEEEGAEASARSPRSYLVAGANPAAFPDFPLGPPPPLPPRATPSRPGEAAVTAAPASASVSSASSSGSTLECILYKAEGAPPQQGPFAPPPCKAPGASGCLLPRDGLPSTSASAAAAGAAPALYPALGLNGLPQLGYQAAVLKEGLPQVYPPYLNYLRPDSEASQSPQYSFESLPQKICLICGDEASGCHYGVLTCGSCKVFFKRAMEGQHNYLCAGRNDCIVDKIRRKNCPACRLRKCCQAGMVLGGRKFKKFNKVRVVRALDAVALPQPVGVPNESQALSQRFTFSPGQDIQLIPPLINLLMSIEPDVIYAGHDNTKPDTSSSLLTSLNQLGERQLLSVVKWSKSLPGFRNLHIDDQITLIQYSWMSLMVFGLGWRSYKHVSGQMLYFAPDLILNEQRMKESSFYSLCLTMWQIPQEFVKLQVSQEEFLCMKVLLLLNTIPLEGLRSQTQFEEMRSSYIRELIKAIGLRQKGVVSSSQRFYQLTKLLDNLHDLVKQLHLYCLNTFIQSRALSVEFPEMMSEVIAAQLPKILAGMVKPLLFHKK
As to the kind of experiment: Radioligand binding with human progesterone receptor cytosol ([3H]-progesterone competition). The following applies: PRA cytosol expressed in insect SF21 cells, [3H]Prog ~0.8 nM, 4° C. overnight; Ki by Cheng-Prusoff, KL ~4.5 nM; read-out: Ki (nM) PR.

[3] abbreviates: GRX cytosol expressed in insect SF21 cells, [3H]-Dex ~0.9 nM, 4° C. overnight, Ki by Cheng-Prusoff, KL ~[…], read-out: Ki (nM) GR.

Molecules are shown by their SMILES. Where two headings read alike, the source gives them in different places. A value given as a limit tells only on which side of the number the result lay.

Broadly, the Ki is a dissociation constant, usually derived from enzyme kinetics or from competition with a known ligand. Regarding `COc1cccc2c1-c1ccc3c(c1C(C1C=C(COC(C)=O)CCC1)O2)C(C)=CC(C)(C)N3` [Example 163, rel (5R, 3′R) 2,5-Dihydro-10-methoxy-5-(1-acetoxymethyl-3-cyclohexenyl)-2,2,4-trimethyl-1H-[1]benzopyrano[3,4-f]quinoline], the Ki in test [1] (setting [3]) is 2.6 nM; in test [2] it was at least 10000 nM.

Regarding `COCC1=CC(C2Oc3cccc(OC)c3-c3ccc4c(c32)C(C)=CC(C)(C)N4)CCC1` (stereo not shown) [Example 164], the Ki in test [1] (setting [3]) was 36 nM; in test [2] it was at least 10000 nM.

As to `CNCC1=CC(C2Oc3cccc(OC)c3-c3ccc4c(c32)C(C)=CC(C)(C)N4)CCC1` [Example 170, rel (5R, 3′R) 2,5-Dihydro-10-methoxy-5-(1-(N-methylamino)methyl-3-cyclohexenyl)2,2,4-trimethyl-1H-[1]benzoppyrano[3,4-f]quinoline], the figures for the Ki in test [1] (setting [3]) and in test [2] were 82 nM and at least 10000 nM, respectively.

As for `C=C(C)CC1Oc2cccc(OC)c2-c2ccc3c(c21)C(C)=CC(C)(C)N3` (stereo not shown) [Example 171, 2,5-Dihydro-10-methoxy-5-(2-methyl-3-propenyl)-2,2,4-trimethyl-1H-[1]benzopyrano[3,4-f]quinoline], the Ki in test [1] (setting [3]) came out at 3.3 nM; in test [2] it was 7430 nM.

Take `COc1cccc2c1-c1ccc3c(c1C(CC1CO1)O2)C(C)=CC(C)(C)N3` (stereo not shown) [Example 175, 2,5-Dihydro-10-methoxy-5-(1,2-epoxy-3-propenyl)-2,2,4-trimethyl-1H-[1]benzopyrano[3,4-f]quinoline]: the Ki came to 44 nM in test [1] (setting [3]) and 7700 nM in test [2].

With `COc1cccc2c1-c1ccc3c(c1C(CCCN1C(=O)c4ccccc4C1=O)O2)C(C)=CC(C)(C)N3` (stereo not shown) [Example 176], the Ki in test [1] (setting [3]) is 88 nM; in test [2] it was above 10000 nM.

In the case of `COc1cccc2c1-c1ccc3c(c1C(CCCNC(=O)NN)O2)C(C)=CC(C)(C)N3` (stereo not shown) [Example 178, 2,5-Dihydro-10-methoxy-5-(1-(hydrazinocarbonylamino)-3-propyl)-2,2,4-trimethyl-1H-[1]benzopyrano[3,4-f]quinoline], the figures for the inhibition constant Ki in test [1] (setting [3]) and in test [2] were 468 nM and at least 10000 nM, respectively.

`COC(=O)/C=C/C1Oc2cccc(OC)c2-c2ccc3c(c21)C(C)=CC(C)(C)N3` (stereo not shown) [Example 179, (E) 2,5-Dihydro-10-methoxy-5-(2-carbomethoxy-1-ethenyl)-2,2,4-trimethyl-1H-[1]benzopyrano[3,4-f]quinoline]: the figures for the Ki in test [1] (setting [3]) and in test [2] were 9.5 nM and 2750 nM, respectively.

On to `C/C=C\C1Oc2cccc(OC)c2-c2ccc3c(c21)C(C)=CC(C)(C)N3` (stereo not shown) [Example 180, (Z)-2,5-Dihydro-10-methoxy-5-(1-propenyl)-2,2,4-trimethyl-1H-[1]benzopyrano[3,4-f]quinoline], for which the figures for the Ki in test [1] (setting [3]) and in test [2] were 18 nM and 733 nM, respectively.

Consider `COc1cccc2c1-c1ccc3c(c1C(/C=C/CO)O2)C(C)=CC(C)(C)N3` (stereo not shown) [Example 181, (E) 2,5-Dihydro-10-methoxy-5-(3-hydroxy-1-propenyl)-2,2,4-trimethyl-1H-[1]benzopyrano[3,4-f]quinoline], for which the Ki in test [1] (setting [3]) was 207 nM; in test [2], at least 10000 nM.

Turning to `COc1cccc2c1-c1ccc3c(c1C(/C=C/COC(=O)N(C)C)O2)C(C)=CC(C)(C)N3` (stereo not shown) [Example 182, (E) 2,5-Dihydro-10-methoxy-5-(3-(N,N-dimethylaminocarbonyloxy)-1-propenyl)-2,2,4-trimethyl-1H-[1]benzopyrano[3,4-f]quinoline], the inhibition constant Ki is 23 nM in test [1] (setting [3]) and at least 10000 nM in test [2].

Turning to `COCOC/C=C/C1Oc2cccc(OC)c2-c2ccc3c(c21)C(C)=CC(C)(C)N3` (stereo not shown) [Example 183, (E) 2,5-Dihydro-10-methoxy-5-(3-methoxymethoxy-1-propenyl)-2,2,4-trimethyl-1H-[1]benzopyrano[3,4-f]quinoline], the Ki in test [1] (setting [3]) is 38 nM; in test [2] it was at least 10000 nM.

For `COc1cccc2c1-c1ccc3c(c1C(CC(=O)N(C)OC)O2)C(C)=CC(C)(C)N3` (stereo not shown) [Example 185, Methyl 2-(2,5-Dihydro-10-methoxy-2,2,4-trimethyl-1H-[1]benzopyrano[3,4-f]quinolin-5-yl)acetyl Hydroxamate], the Ki in test [1] (setting [3]) was 288 nM; in test [2] it was at least 10000 nM.

Turning to `COc1cccc2c1-c1ccc3c(c1C(CC=O)O2)C(C)=CC(C)(C)N3` (stereo not shown) [Example 186, 2-(2,5-Dihydro-10-methoxy-2,2,4-trimethyl-1H-[1]benzopyrano[3,4-f]quinolin-5-yl)acetaldehyde], the Ki is 90 nM in test [1] (setting [3]) and at least 10000 nM in test [2].

For `COc1cccc2c1-c1ccc3c(c1C(CC=C1CCCC1)O2)C(C)=CC(C)(C)N3` (stereo not shown) [Example 188, 2,5-Dihydro-10-methoxy-5-(2-cyclopentylidenylethyl)-2,2,4-trimethyl-1H-[1]benzopyrano[3,4-f]quinoline], the Ki in test [1] (Ki (nM) GR) came to 4.9 nM; in test [2] it was 5300 nM.

As for `COc1cccc2c1-c1ccc3c(c1C(CC=C(C)C)O2)C(C)=CC(C)(C)N3` (stereo not shown) [Example 190, 2,5-Dihydro-10-methoxy-5-(3-methyl-2-butenyl)-2,2,4-trimethyl-1H-[1]benzopyrano[3,4f-]quinoline], the figures for the Ki in test [1] (setting [3]) and in test [2] were 6.25 nM and 1590 nM, respectively.

In the case of `C/C=C/CC1Oc2cccc(OC)c2-c2ccc3c(c21)C(C)=CC(C)(C)N3` (stereo not drawn) [Example 191, trans 2,5-Dihydro-10-methoxy-5-(2-butenyl)-2,2,4-trimethyl-1H-[1]benzopyrano[3,4-f]quinoline], the Ki is 2.9 nM in test [1] (setting [3]) and 1190 nM in test [2].

As for `CC/C=C/CC1Oc2cccc(OC)c2-c2ccc3c(c21)C(C)=CC(C)(C)N3` (stereo not drawn) [Example 192, trans 2,5-Dihydro-10-methoxy-5-(2-penten-1-yl)-2,2,4-trimethyl-1H-[1]benzopyrano[3,4-f]quinoline], the values for the Ki in test [1] (setting [3]) and in test [2] were 3.1 nM and at least 10000 nM, respectively.

Take `COc1cccc2c1-c1ccc3c(c1C(CC=C(F)F)O2)C(C)=CC(C)(C)N3` (stereo not shown) [Example 193, 2,5-Dihydro-10-methoxy-5-(1,1-difluoro-1-propen-3-yl)-2,2,4-trimethyl-1H-[1]benzopyrano[3,4-f]quinoline]: the values for the Ki in test [1] (Ki (nM) GR) and in test [2] were 2 nM and 2180 nM, respectively.

As for `COC(=O)/C=C/CC1Oc2cccc(OC)c2-c2ccc3c(c21)C(C)=CC(C)(C)N3` (stereo not shown) [Example 194], the inhibition constant Ki in test [1] (setting [3]) is 7.7 nM; in test [2], at least 10000 nM.

Turning to `COc1cccc2c1-c1ccc3c(c1C(C/C=C/CO)O2)C(C)=CC(C)(C)N3` (stereo not shown) [Example 195, (E) 2,5-Dihydro-10-methoxy-5-(4-hydroxy-2-buten-1-yl)-2,2,4-trimethyl-1H-[1]benzopyrano[3,4-f]quinoline], the Ki in test [1] (setting [3]) is 25 nM; in test [2], at least 10000 nM.

For `COc1cccc2c1-c1ccc3c(c1C(C/C=C/COC(=O)N(C)C)O2)C(C)=CC(C)(C)N3` (stereo not shown) [Example 196, (E) 2,5-Dihydro-10-methoxy-5-(4-(N,N-dimethylaminocarbonyloxy)-2-buten-1-yl)-2,2,4-trimethyl-1H-[1]benzopyrano[3,4-f]quinoline], the Ki in test [1] (setting [3]) is 1.1 nM; in test [2], at least 10000 nM.

Consider `CNC(=O)OC/C=C/CC1Oc2cccc(OC)c2-c2ccc3c(c21)C(C)=CC(C)(C)N3` (stereo not shown) [Example 197, (E) 2,5-Dihydro-10-methoxy-5-(4-(N-methylaminocarbonyloxy)-2-buten-1-yl)-2,2,4-trimethyl-1H-[1]benzopyrano[3,4-f]quinoline], for which the Ki in test [1] (setting [3]) is 28 nM; in test [2], at least 10000 nM.

(Values after patent US6506766B1 (Abbott Laboratories, priority 1998, dated 2003).)
